Measurements reported in US7064128B2, “Preferentially substituted calcium channel blockers” (NeuroMed Technologies, Inc., priority 1998, dated 2006).
Read-outs that look alike come from different tables or passages of the source.

How the values were obtained:
Type in all cases: cell-based
[1] = target: T1, N-type calcium channels (α1B+α2δ+β1b cDNA subunits) (Rattus norvegicus, UniProt Q02294); test: Whole cell patch clamp, tonic and frequency dependent block, N-type channels in HEK 293 (Example 5); conditions: for % Block (100 nM) 0.03 Hz: 0.03 Hz (tonic block); for % Block (100 nM) 0.2 Hz: 0.2 Hz (frequency dependent block)
T1 construct: expressed in transfected cells
T1 sequence (Q02294 whole entry): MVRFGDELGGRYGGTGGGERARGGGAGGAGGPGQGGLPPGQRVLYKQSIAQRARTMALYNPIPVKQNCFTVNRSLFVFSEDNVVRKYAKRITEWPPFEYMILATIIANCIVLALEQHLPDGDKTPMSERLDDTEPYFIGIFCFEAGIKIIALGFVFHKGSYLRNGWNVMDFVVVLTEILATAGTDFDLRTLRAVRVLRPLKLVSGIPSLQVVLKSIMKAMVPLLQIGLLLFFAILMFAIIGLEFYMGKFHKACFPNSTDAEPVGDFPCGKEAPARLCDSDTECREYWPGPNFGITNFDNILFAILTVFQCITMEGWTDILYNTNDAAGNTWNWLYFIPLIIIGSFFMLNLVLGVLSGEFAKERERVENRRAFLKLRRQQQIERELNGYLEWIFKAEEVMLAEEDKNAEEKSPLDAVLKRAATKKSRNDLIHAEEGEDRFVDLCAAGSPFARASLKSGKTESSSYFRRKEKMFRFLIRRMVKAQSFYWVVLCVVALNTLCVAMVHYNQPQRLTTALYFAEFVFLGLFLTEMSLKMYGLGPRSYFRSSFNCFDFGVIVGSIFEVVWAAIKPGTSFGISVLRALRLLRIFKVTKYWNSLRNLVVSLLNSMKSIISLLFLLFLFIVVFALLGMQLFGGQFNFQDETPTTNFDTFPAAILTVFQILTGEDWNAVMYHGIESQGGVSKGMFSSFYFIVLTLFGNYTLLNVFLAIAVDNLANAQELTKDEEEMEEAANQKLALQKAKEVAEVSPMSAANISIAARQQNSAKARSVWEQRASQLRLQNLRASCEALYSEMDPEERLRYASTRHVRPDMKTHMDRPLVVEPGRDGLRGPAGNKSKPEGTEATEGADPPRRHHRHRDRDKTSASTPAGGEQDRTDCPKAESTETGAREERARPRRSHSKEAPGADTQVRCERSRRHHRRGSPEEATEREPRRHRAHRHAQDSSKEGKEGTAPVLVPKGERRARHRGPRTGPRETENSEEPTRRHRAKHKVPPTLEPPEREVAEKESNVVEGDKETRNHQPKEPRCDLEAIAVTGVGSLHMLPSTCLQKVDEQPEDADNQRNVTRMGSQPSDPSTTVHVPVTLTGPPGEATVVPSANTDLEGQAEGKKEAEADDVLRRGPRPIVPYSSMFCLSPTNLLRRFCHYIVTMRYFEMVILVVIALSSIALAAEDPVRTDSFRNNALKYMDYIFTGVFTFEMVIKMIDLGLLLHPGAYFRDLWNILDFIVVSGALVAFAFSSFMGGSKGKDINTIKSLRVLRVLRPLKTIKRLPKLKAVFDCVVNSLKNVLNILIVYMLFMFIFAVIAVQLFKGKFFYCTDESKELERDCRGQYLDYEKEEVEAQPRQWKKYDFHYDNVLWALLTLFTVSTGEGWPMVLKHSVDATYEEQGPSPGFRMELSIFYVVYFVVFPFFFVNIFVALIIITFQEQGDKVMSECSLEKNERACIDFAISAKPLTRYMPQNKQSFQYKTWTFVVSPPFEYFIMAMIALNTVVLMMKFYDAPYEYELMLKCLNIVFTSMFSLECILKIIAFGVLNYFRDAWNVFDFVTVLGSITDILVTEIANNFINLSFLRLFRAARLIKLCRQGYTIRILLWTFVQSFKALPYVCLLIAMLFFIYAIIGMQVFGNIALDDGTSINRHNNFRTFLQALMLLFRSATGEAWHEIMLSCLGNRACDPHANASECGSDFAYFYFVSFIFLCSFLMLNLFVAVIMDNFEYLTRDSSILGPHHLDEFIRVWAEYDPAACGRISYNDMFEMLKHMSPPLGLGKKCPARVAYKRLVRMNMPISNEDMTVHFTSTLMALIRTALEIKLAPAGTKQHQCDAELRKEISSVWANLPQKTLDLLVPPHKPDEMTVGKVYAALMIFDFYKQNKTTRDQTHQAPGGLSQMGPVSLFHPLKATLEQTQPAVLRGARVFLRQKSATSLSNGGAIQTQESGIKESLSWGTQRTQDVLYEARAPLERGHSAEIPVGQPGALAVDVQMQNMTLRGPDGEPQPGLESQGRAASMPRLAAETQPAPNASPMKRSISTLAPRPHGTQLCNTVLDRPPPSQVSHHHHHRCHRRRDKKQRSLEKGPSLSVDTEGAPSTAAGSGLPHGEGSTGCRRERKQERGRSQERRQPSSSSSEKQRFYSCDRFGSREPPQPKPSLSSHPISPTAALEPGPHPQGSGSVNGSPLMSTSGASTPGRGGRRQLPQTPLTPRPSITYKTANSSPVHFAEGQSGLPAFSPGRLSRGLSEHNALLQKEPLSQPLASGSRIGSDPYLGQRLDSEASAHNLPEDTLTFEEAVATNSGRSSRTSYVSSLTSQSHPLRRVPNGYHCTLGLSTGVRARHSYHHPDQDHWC
T1 sequence (P54290 25-944 partner limits assumed): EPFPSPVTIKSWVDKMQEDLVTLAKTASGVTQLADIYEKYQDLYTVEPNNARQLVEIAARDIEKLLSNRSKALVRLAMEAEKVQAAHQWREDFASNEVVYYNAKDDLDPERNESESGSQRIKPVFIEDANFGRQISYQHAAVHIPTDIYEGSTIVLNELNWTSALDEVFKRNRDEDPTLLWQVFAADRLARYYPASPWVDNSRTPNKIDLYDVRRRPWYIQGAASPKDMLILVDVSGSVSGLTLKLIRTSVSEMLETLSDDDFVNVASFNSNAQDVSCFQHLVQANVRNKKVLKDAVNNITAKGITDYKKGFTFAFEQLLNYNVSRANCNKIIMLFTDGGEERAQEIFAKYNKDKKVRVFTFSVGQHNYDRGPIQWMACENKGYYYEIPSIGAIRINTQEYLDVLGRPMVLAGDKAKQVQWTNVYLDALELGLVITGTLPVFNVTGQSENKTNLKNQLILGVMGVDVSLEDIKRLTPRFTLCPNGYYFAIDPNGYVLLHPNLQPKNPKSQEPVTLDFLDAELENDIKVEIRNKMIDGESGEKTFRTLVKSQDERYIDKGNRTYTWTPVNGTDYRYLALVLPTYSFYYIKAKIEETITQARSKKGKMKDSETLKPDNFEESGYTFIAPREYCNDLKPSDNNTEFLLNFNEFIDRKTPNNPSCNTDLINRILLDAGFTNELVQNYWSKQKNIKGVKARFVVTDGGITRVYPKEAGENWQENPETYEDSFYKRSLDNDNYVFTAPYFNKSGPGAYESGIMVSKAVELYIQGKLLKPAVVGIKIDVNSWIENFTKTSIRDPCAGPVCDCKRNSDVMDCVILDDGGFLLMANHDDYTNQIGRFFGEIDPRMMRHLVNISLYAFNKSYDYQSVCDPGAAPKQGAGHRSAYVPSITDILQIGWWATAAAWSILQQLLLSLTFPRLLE
T1 sequence (P54290 945-1091 partner limits assumed): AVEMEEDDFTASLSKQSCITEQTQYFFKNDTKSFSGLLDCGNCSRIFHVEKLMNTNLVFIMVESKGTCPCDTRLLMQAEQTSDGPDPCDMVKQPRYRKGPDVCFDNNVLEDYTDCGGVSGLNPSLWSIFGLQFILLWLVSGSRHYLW
T1 sequence (P54283 whole entry partner): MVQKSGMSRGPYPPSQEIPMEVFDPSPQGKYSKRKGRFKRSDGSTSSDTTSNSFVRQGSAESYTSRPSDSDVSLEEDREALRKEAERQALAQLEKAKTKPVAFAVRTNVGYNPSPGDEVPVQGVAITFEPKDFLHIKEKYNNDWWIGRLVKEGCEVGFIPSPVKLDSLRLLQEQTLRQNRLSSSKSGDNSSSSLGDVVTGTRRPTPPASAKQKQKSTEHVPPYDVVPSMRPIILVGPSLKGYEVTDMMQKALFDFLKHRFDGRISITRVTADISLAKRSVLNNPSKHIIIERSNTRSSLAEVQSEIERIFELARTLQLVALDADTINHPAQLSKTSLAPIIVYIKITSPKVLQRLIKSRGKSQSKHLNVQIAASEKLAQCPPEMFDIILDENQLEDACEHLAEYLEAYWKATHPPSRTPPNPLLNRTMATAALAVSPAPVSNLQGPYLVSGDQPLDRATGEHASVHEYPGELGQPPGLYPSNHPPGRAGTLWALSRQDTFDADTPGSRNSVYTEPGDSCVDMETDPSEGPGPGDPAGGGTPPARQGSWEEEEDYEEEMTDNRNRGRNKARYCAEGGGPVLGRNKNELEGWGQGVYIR
Description: (§1) N-type calcium channel blocking activity was assayed in human embryonic kidney cells, HEK 293, stably transfected with the rat brain N-type calcium channel subunits (α1B+α2δ+β1b cDNA subunits). Alternatively, N-type calcium channels (α1B+α2δ+β1b cDNA subunits), L-type channels (α1C+α2δ+β1b cDNA subunits) and P/Q-type channels (α1A+α2δ+β1b cDNA subunits) were transiently expressed in HEK 293 cells. Briefly, cells were cultured in Dulbecco's modified eagle medium (DMEM) supplemented with 10% fetal bovine serum, 200 U/ml penicillin and 0.2 mg/ml streptomycin at 37° C. with 5% CO2. At 85% confluency cells were split with 0.25% trypsin/1 mM EDTA and plated at 10% confluency on glass coverslips. At 12 hours the medium was replaced and the cells transiently transfected using a standard calcium phosphate protocol and the appropriate calcium channel cDNAs. Fresh DMEM was supplied and the cells transferred to 28° C./5% CO2. Cells were incubated for 1 to 2 days to whole cell recording.
(§2) Whole cell patch clamp experiments were performed using an Axopatch 200B amplifier (Axon Instruments, Burlingame, Calif.) linked to a personal computer equipped with pCLAMP software. The external and internal recording solutions contained, respectively, 5 mM BaCl2, 1 mM MgCl2, 10 mM HEPES, 40 mM TEACl, 10 mM glucose, 87.5 mM CsCl (pH 7.2) and 108 mM CsMS, 4 mM MgCl2, 9 mM EGTA, 9 mM HEPES (pH 7.2). Currents were typically elicited from a holding potential of −80 mV to +10 mV using Clampex software (Axon Instruments). Typically, currents were first elicited with low frequency stimulation (0.03 Hz) and allowed to stabilize prior to application of the compounds. The compounds were then applied during the low frequency pulse trains for two to three minutes to assess tonic block, and subsequently the pulse frequency was increased to 0.2 Hz to assess frequency dependent block. Data were analyzed using Clampfit (Axon Instruments) and SigmaPlot 4.0 (Jandel Scientific).

[2] = system: P/Q-type channels (α1A+α2δ+β1b cDNA subunits); test: Whole cell patch clamp, tonic and frequency dependent block, P/Q-type channels in HEK 293 (Example 5); conditions: in general
Description: as §1, §2
(§3) Tables 2 and 3 show the results of similar experiments conducted with P/Q-type and L-type channels expressed in HEK 293 cells.

[3] = target: P/Q-type channels (α1A+α2δ+β1b cDNA subunits) (UniProt P54282); test: as above
Description: as §1, §2, §3

[4] = target: T2, L-type channels (α1C+α2δ+β1b cDNA subunits) (UniProt P22002); test: Whole cell patch clamp, tonic and frequency dependent block, L-type channels in HEK 293 (Example 5)
T2 construct: other: α1C (L-type), 100 nM, 0.03 Hz; other: α1C (L-type), 100 nM, 0.2 Hz; other: α1C (L-type), 0.03 Hz; other: α1C (L-type), 0.2 Hz
Description: as §1, §2, §3

[5] = system: L-type channels (α1C+α2δ+β1b cDNA subunits); test: as above; conditions: in general
Description: as §1, §2, §3

[6] = Table 4 summary, 0.2 Hz, N-type, unit not given in Table 4 (μM in Table 1), read-out: N (IC50 values)
[7] = α1B (N-type), 0.03 Hz, read-out: Estimated IC50 (μM) 0.03 Hz
[8] = α1B (N-type), 0.2 Hz, read-out: Estimated IC50 (μM) 0.2 Hz
[9] = Table 4 summary, 0.2 Hz, P/Q-type, unit not given in Table 4 (μM in Table 2), read-out: P/Q (IC50 values)
[10] = α1A (P/Q-type), 0.03 Hz, read-out: Estimated IC50 (μM) 0.03 Hz
[11] = α1A (P/Q-type), 0.2 Hz, read-out: Estimated IC50 (μM) 0.2 Hz
[12] = Table 4 summary, 0.2 Hz, L-type, unit not given in Table 4 (μM in Table 3), read-out: L (IC50 values)
[13] = α1C (L-type), 0.03 Hz, read-out: Estimated IC50 (μM) 0.03 Hz
[14] = α1C (L-type), 0.2 Hz, read-out: Estimated IC50 (μM) 0.2 Hz

Q: Which results are given for `O=C(CC(c1ccccc1)c1ccccc1)N1CCN(C(c2ccccc2)c2ccccc2)CC1` [39-1-B4]?
A: N-type channel inhibition at higher frequencies (in words) ([1]; 0.2 Hz): most potent inhibitors at higher frequencies; IC50 [1, 6]: 0.04 µM; % Block (100 nM) 0.03 Hz ([1]; α1B (N-type)): 34%; % Block (100 nM) 0.2 Hz ([1]; α1B (N-type)): 72%; IC50 [1, 7]: 0.2 µM; IC50 [1, 8]: 0.04 µM; IC50 values on P/Q-type channels compared with N-type (in words) [2]: higher than those exhibited with respect to N-type channels; IC50 [3, 9]: 0.12 µM; % Block (100 nM) 0.03 Hz ([3]; α1A (P/Q-type), 0.03 Hz): 31%; % Block (100 nM) 0.2 Hz ([3]; α1A (P/Q-type), 0.2 Hz): 52%; IC50 [3, 10]: 0.65 µM; IC50 [3, 11]: 0.12 µM; IC50 [4, 12]: 0.3 µM; % Block (100 nM) 0.03 Hz ([4]; α1C (L-type), 0.03 Hz): 19%; % Block (100 nM) 0.2 Hz ([4]; α1C (L-type), 0.2 Hz): 29%; IC50 [4, 13]: 0.5 µM; IC50 [4, 14]: 0.3 µM; IC50 values on L-type channels compared with N-type (in words) [5]: higher than those exhibited with respect to N-type channels

Q: Which results are given for `COc1cc(CN2CCN(CCCCCC(c3ccc(F)cc3)c3ccc(F)cc3)CC2)cc(OC)c1OC` [39-45-3]?
A: N-type channel inhibition at higher frequencies (in words) ([1]; 0.2 Hz): most potent inhibitors at higher frequencies; IC50 [1, 6]: 0.03 µM; % Block (100 nM) 0.03 Hz ([1]; α1B (N-type)): 50%; % Block (100 nM) 0.2 Hz ([1]; α1B (N-type)): 79%; IC50 [1, 7]: 0.1 µM; IC50 [1, 8]: 0.03 µM; IC50 values on P/Q-type channels compared with N-type (in words) [2]: higher than those exhibited with respect to N-type channels; IC50 [3, 9]: 0.09 µM; % Block (100 nM) 0.03 Hz ([3]; α1A (P/Q-type), 0.03 Hz): 27%; % Block (100 nM) 0.2 Hz ([3]; α1A (P/Q-type), 0.2 Hz): 58%; IC50 [3, 10]: 0.41 µM; IC50 [3, 11]: 0.09 µM; IC50 [4, 12]: 0.37 µM; % Block (100 nM) 0.03 Hz ([4]; α1C (L-type), 0.03 Hz): 15%; % Block (100 nM) 0.2 Hz ([4]; α1C (L-type), 0.2 Hz): 26%; IC50 [4, 13]: 0.74 µM; IC50 [4, 14]: 0.37 µM; IC50 values on L-type channels compared with N-type (in words) [5]: higher than those exhibited with respect to N-type channels

Q: How did the “N-type channel inhibition at higher frequencies (in words)” value ([1]; 0.2 Hz) turn out when `O=C(CCCCC(c1ccccc1)c1ccccc1)N1CCC(NCC2CCCCC2)CC1` [JM-G-10] was run?
A: The value was “most potent inhibitors at higher frequencies”.

Q: And the IC50 [1, 6]?
A: The IC50 was 0.06 µM.

Q: What about the “% Block (100 nM) 0.03 Hz” value ([1]; α1B (N-type)) of the same compound?
A: The value was 38%.

Q: What about the “% Block (100 nM) 0.2 Hz” value ([1]; α1B (N-type)) of the same compound?
A: Its value is 63%.

Q: What about the IC50 [1, 7] of the same compound?
A: Its IC50 is 0.17 µM.

Q: What about the IC50 [1, 8] of the same compound?
A: Its IC50 is 0.06 µM.

Q: And the “IC50 values on P/Q-type channels compared with N-type (in words)” value [2]?
A: Its value is “higher than those exhibited with respect to N-type channels”.

Q: What about the IC50 [3, 9] of the same compound?
A: The IC50 was 0.07 µM.

Q: And the “% Block (100 nM) 0.03 Hz” value ([3]; α1A (P/Q-type), 0.03 Hz)?
A: Its value is 28%.

Q: And the “% Block (100 nM) 0.2 Hz” value ([3]; α1A (P/Q-type), 0.2 Hz)?
A: The value was 62%.

Q: What about the IC50 [3, 10] of the same compound?
A: Its IC50 is 0.3 µM.

Q: And the IC50 [3, 11]?
A: The IC50 was 0.07 µM.

Q: What about the IC50 [4, 12] of the same compound?
A: Its IC50 is 0.3 µM.

Q: What about the “% Block (100 nM) 0.03 Hz” value ([4]; α1C (L-type), 0.03 Hz) of the same compound?
A: The value was 7%.

Q: And the “% Block (100 nM) 0.2 Hz” value ([4]; α1C (L-type), 0.2 Hz)?
A: Its value is 15%.

Q: And the IC50 [4, 13]?
A: The IC50 was 1.17 µM.

Q: And the IC50 [4, 14]?
A: Its IC50 is 0.3 µM.

Q: What about the “IC50 values on L-type channels compared with N-type (in words)” value [5] of the same compound?
A: Its value is “higher than those exhibited with respect to N-type channels”.

Q: What does the source list for `O=C(CCCCC(c1ccccc1)c1ccccc1)N1CCN(C/C=C/c2ccccc2)CC1` [MC-34D]?
A: N-type channel inhibition at higher frequencies (in words) ([1]; 0.2 Hz): most potent inhibitors at higher frequencies; IC50 [1, 6]: 0.05 µM; % Block (100 nM) 0.03 Hz ([1]; α1B (N-type)): 47%; % Block (100 nM) 0.2 Hz ([1]; α1B (N-type)): 73%; IC50 [1, 7]: 0.12 µM; IC50 [1, 8]: 0.05 µM; IC50 values on P/Q-type channels compared with N-type (in words) [2]: higher than those exhibited with respect to N-type channels; IC50 [3, 9]: 0.08 µM; % Block (100 nM) 0.03 Hz ([3]; α1A (P/Q-type), 0.03 Hz): 31%; % Block (100 nM) 0.2 Hz ([3]; α1A (P/Q-type), 0.2 Hz): 56%; IC50 [3, 10]: 0.35 µM; IC50 [3, 11]: 0.08 µM; IC50 [4, 12]: 0.39 µM; % Block (100 nM) 0.03 Hz ([4]; α1C (L-type), 0.03 Hz): 14%; % Block (100 nM) 0.2 Hz ([4]; α1C (L-type), 0.2 Hz): 24%; IC50 [4, 13]: 0.63 µM; IC50 [4, 14]: 0.39 µM; IC50 values on L-type channels compared with N-type (in words) [5]: higher than those exhibited with respect to N-type channels
